Source: the NIST ThermoML archive (doi:10.1016/j.fluid.2016.10.004)

Details: for mass density: 100 kPa, Liquid, buoyancy

CCC[n+]1ccccc1.O=S(=O)([N-]S(=O)(=O)C(F)(F)F)C(F)(F)F [1-propylpyridinium bis((trifluoromethyl)sulfonyl)amide]
Details | surface tension liquid-gas [mN/m]
318.35 K, Wilhelmy plate | 34.52
318.38 K, Ring tensiometer | 34.67
322.86 K, Wilhelmy plate | 34.29
322.89 K, Ring tensiometer | 34.46
328.15 K, Wilhelmy plate | 34.02
328.19 K, Ring tensiometer | 34.21
333.17 K, Wilhelmy plate | 33.75
333.21 K, Ring tensiometer | 33.97
338 K, Wilhelmy plate | 33.56
338.03 K, Ring tensiometer | 33.8
343.1 K, Wilhelmy plate | 33.35
343.11 K, Ring tensiometer | 33.56
347.59 K, Ring tensiometer | 33.34
347.63 K, Wilhelmy plate | 33.13
353.31 K, Wilhelmy plate | 32.87
353.34 K, Ring tensiometer | 33.1
358.35 K, Wilhelmy plate | 32.64
358.37 K, Ring tensiometer | 32.82
362.09 K, Wilhelmy plate | 32.43
362.18 K, Ring tensiometer | 32.61

Details | mass density [kg/m3]
318.41 K | 1468.8
323.02 K | 1464.45
328.3 K | 1459.61
333.28 K | 1454.58
338.11 K | 1450.05
343.18 K | 1445.34
347.36 K | 1440.68
353.35 K | 1435.49
357.87 K | 1430.78
362.15 K | 1426.55

CCC[n+]1ccc(C)cc1.O=S(=O)([N-]S(=O)(=O)C(F)(F)F)C(F)(F)F
Details | mass density [kg/m3]
268.1 K | 1482.1
278.71 K | 1469.95
283.45 K | 1465.84
288.19 K | 1461.42
293.46 K | 1456.03
298.38 K | 1450.93
303.12 K | 1446.6
308.24 K | 1440.93
313.15 K | 1435.96
318.2 K | 1431.59
323.16 K | 1426.43
328.14 K | 1421.84
333.57 K | 1416.94
338.25 K | 1412.36
343.8 K | 1407.53
348.11 K | 1402.8
353.25 K | 1398.13
357.74 K | 1394
362.63 K | 1389.16

surface tension liquid-gas [mN/m]
Details | Ring tensiometer | Wilhelmy plate
288.19 K | 35.82 | –
288.22 K | – | 35.61
293.49 K | 35.56 | 35.39
298.37 K | 35.36 | 35.2
303.11 K | 35.17 | –
303.12 K | – | 35
308.15 K | 34.96 | –
308.17 K | – | 34.85
313.06 K | 34.66 | 34.65
318.14 K | – | 34.48
318.15 K | 34.46 | –
323.06 K | – | 34.25
323.07 K | 34.23 | –
327.97 K | 33.95 | –
328 K | – | 34.04
332.97 K | 33.7 | –
333.36 K | – | 33.79
338.08 K | – | 33.6
338.17 K | 33.44 | –
343.75 K | – | 33.43
343.8 K | 33.2 | –
347.87 K | – | 33.2
348.11 K | 32.98 | –
353.29 K | – | 33.01
353.47 K | 32.7 | –
357.58 K | – | 32.83
357.72 K | 32.42 | –
362.45 K | – | 32.61
362.65 K | 32.22 | –

CCC[n+]1ccccc1C.O=S(=O)([N-]S(=O)(=O)C(F)(F)F)C(F)(F)F
surface tension liquid-gas [mN/m]
Details | Ring tensiometer | Wilhelmy plate
264.98 K | 37.98 | –
274.35 K | 37.65 | –
278.08 K | 37.48 | –
283.24 K | 37.32 | –
283.37 K | – | 36.98
288.21 K | 37.06 | –
288.25 K | – | 36.82
293.4 K | 36.9 | –
293.42 K | – | 36.65
298.31 K | 36.64 | 36.5
302.93 K | 36.45 | –
303.05 K | – | 36.31
307.78 K | 36.29 | –
307.82 K | – | 36.11
312.97 K | 36.07 | 35.95
318.38 K | – | 35.76
318.39 K | 35.83 | –
322.88 K | – | 35.52
322.94 K | 35.54 | –
328.34 K | 35.29 | 35.32
333.16 K | 35.03 | 35.12
337.5 K | 34.74 | –
337.93 K | – | 34.92
343.2 K | – | 34.77
343.21 K | 34.63 | –
347.6 K | – | 34.53
347.65 K | 34.27 | –
353.02 K | 34.14 | 34.38
359.26 K | – | 34.14
359.32 K | 33.83 | –
363.55 K | – | 33.94
363.67 K | 33.73 | –

Details | mass density [kg/m3]
274.36 K | 1487.31
278.09 K | 1484.28
283.39 K | 1478.78
288.24 K | 1473.7
293.42 K | 1468.58
298.29 K | 1464.23
303.1 K | 1459.95
307.9 K | 1454.39
313.05 K | 1449.74
318.4 K | 1444.8
322.98 K | 1440.18
328.44 K | 1435.36
333.33 K | 1430.49
338.04 K | 1426.36
343.34 K | 1421.49
347.7 K | 1417.08
353.28 K | 1412.49
359.15 K | 1407.9
363.7 K | 1403.29

CCC[n+]1cccc(C)c1.O=S(=O)([N-]S(=O)(=O)C(F)(F)F)C(F)(F)F
surface tension liquid-gas [mN/m]
Details | Ring tensiometer | Wilhelmy plate
264.14 K | 36.35 | –
268.06 K | 36.23 | –
273.39 K | 36.1 | –
273.45 K | – | 35.78
278.42 K | 35.88 | 35.59
283.19 K | 35.6 | –
283.2 K | – | 35.41
288.5 K | 35.39 | –
288.67 K | – | 35.22
292.92 K | 35.23 | –
292.99 K | – | 35.06
298.42 K | 35.03 | –
298.44 K | – | 34.88
303.1 K | 34.83 | –
303.12 K | – | 34.68
308.03 K | 34.64 | –
308.04 K | – | 34.53
312.72 K | – | 34.29
312.75 K | 34.39 | –
318.22 K | 34.12 | –
318.25 K | – | 34.08
323.19 K | – | 33.91
323.23 K | 33.95 | –
328.11 K | 33.69 | 33.65
333.15 K | – | 33.46
333.21 K | 33.43 | –
339.21 K | – | 33.18
339.28 K | 33.18 | –
342.59 K | 33.03 | –
342.65 K | – | 33.08
347.77 K | – | 32.85
347.91 K | 32.78 | –
352.59 K | – | 32.7
352.62 K | 32.49 | –

Details | mass density [kg/m3]
264.25 K | 1481.37
268.17 K | 1476.75
273.62 K | 1471.18
278.64 K | 1466.69
283.23 K | 1461.95
288.58 K | 1456.8
293 K | 1452.82
298.44 K | 1448.15
303.17 K | 1443.76
308.13 K | 1438.23
312.76 K | 1433.63
318.32 K | 1428.63
323.28 K | 1423.98
328.19 K | 1419.2
333.31 K | 1414.52
339.09 K | 1409.83
342.77 K | 1406.02
348.02 K | 1401
352.77 K | 1396.52
358.08 K | 1391.47
363.28 K | 1386.7
